Patent US10196454B2, “Anti-PMEL17 antibodies and immunoconjugates” (GENENTECH, INC., priority 2012, dated 2019)
Like-named read-outs stand apart in the source and are kept apart here.

B1: 14C10: anti-PMEL17 antibody that binds to the same deletion fragments as 17A9 (antibody, V domains shown)
VH: QVTLKESGPGILQPSQTLSLTCSFSGFSLSTSAMGIGWIRQPSGKGLEWLAHIWWDDDKRYNPALKSRLTISKDTSRNQVFLKIASVDTADTATYFCARIDGIYDGSFYAMDYWGQGTSVTVSS
VL: DIVLTQSPASLAVSLGQRATISCRASESVDSYGNSFMHWYQQKPGQPPKLLIYRASNLESGIPARFSGSGSRTDFTLTINPVEADDVANYYCQQSNEDYTFGGGTKLEIK
B2: 17A9 ADC (conjugate)
VH: EVQLQQSGPELVKPGASMKISCKSSGYSFTRYTMNWVKQSHGKNLEWIGVINPYNGGTVYNQKFKGKATLTVDKSSSTAYMELLSLTSEDSAVYYCARTDYDGYAMDYWGQGTSVTVSS
VL: DVQITQSPSYLAASPGETITINCRATKSISKYLAWYQEQPGKTNNLLIYSGSTLQSGIPSRFSGSGSGTDFTLTISSLEPEDFAMYYCQQHNEYPYTFGSGTKLEIK
B3: anti-PMEL17-vc-MMAE: anti-PMEL17 ADC with protease-cleavable val-cit linker and MMAE (17A9 or ch17A9 with MC-vc-PAB-MMAE) (conjugate)
VH: B2 VH
VL: B2 VL

Legend:
[1] = test system: parental UACC-257X2.2 cells; assay: In vitro cell proliferation (CellTiter-Glo, five days); type: cell-based; conditions: parental line
Method: (§1) In vitro cell proliferation of the cell lines in the presence of the immunoconjugates was assessed. Cells were plated at 1,500 cells per well in 50 μL of normal growth medium in 96-well clear-bottom plates. Twenty-four hours later, an additional 50 μL of culture medium with serial dilutions of immunoconjugates were added to triplicate wells. Five days later, cell survival was determined using CellTiter-Glo Luminescent Cell Viability Reagent (G7572, Promega Corporation, Madison, Wis.) using an EnVision 2101 Mutilabel Reader (Perkin-Elmer, Waltham, Mass.).

[2] = test system: in vitro derived resistant UACC-257X2.2 cells; assay: as above; type: cell-based; conditions: in vitro derived resistant line
Method: For resistance developed in vitro, UACC-257X2.2 cells were adapted to increasing concentrations of anti-ETBR-vc-MMAE in culture dishes over the course of two months.
as §1

[3] = test system: in vivo derived resistant UACC-257X2.2 cells; assay: as above; type: cell-based; conditions: in vivo derived resistant line
Method: Tumor #359 was harvested and the cells were dissociated for growth in vitro (referred to herein as in vivo-derived resistant UACC-257X2.2 cells).
as §1

human PMEL17 = assay: Monoclonal antibody epitope mapping with PMEL17 deletion mutants (immunoblot, FACS); type: binding; conditions: N-terminal deletions by immunoblot; C-terminal deletions in 293 cells by FACS
Method: All the constructs for epitope mapping were made by PCR amplification of each fragment and subcloning into either pRKtkneo vector with an N-terminal gD tag, or pRKtkneo vector with an N-terminal gD tag and a C-terminal GPI anchor. Transfections were performed using FuGene 6 (Roche Applied Science), and empty vector was used as control. Full-length human PMEL17 was subcloned into pRKtkneo vector with an N-terminal gD tag.
A signal sequence and a gD epitope tag were fused to the N-terminal sequence of a series of deletion mutants, which were then expressed in mammalian cells and the lysates analyzed by immuoblotting for reactivity with 17A9 or 77E6. The N-terminal deletions tested included Δ100, Δ255, Δ292, Δ315, Δ444, Δ515, and Δ567.
In addition, C-terminal deletions with an N-terminal gD tag and a C-terminal GPI anchor were transiently transfected into 293 cells and analyzed for antibody binding by FACS. The C-terminal deletions tested included PMEL1725-125, PMEL1725-105, PMEL1725-85, PMEL1725-65, and PMEL1725-45. Finally, a PMEL17 fragment comprising the region from amino acid 515 through the transmembrane domain, but lacking the cytoplasmic region (“Δ515-C”) and a PMEL17 fragment comprising just the cytoplasmic domain with an N-terminal gD tag and a C-terminal GPI anchor were analyzed by immuoblotting for reactivity with 77E6.

[4] = test system: SK-MEL-23 melanoma cell line xenograft; assay: SK-MEL-23 melanoma cell line xenograft; type: in vivo, mice; conditions: single IV injection, 6 mg/kg
Method: The efficacy of the anti-PMEL17 ADCs was investigated using an SK-MEL-23 melanoma cell line xenograft model. Female CRL Nu/Nu mice from Charles River Laboratories were inoculated subcutaneously in the dorsal right flank with five million SK-MEL-23 cells in HBSS with Matrigel. […] When tumor volumes reached ˜200 mm^3 (day 0), animals were randomized into groups of 10 each and administered a single IV injection of 2 or 6 mg/kg 17A9 ADC. MMAE conjugated to anti-GP120 antibody was used as a control. Tumor volumes were measured twice per week until study end. Tumor volumes were determined using digital calipers (Fred V. Fowler Company, Inc.) using the formula (L×w×W)/2. Tumor growth inhibition (% TGI) was calculated as the percentage of the area under the fitted curve (AUC) for the respective dose group per day in relation to the vehicle, such that % TGI=100×[1−(AUCtreatment/day)/(AUCvehicle/day)]. Curve fitting was applied to Loge transformed individual tumor volume data using a linear mixed-effects model using the R package nlme, version 3.1-96 in R v2.10.1.

[5] = test system: PC3 cells stably expressing PMEL17; assay: Inhibition of in vitro cell proliferation (CellTiter-GloII); type: cell-based
Method: Proliferation in the presence of 17A9 ADC was assessed using PMEL17+ melanoma cells and PC3 cells stably expressing PMEL17 plated at 2,000 per well in 50 μL of normal growth medium in 96-well clear-bottom plates (PerkinElmer). Twenty-four hours later, an additional 50 μL of culture medium with serial dilutions of 17A9 ADC were added to triplicate wells. Three or five days later, cell numbers were determined using CellTiter-GloII (Promega Corp.) and with an EnVision 2101 Mutilabel Reader (PerkinElmer).

[6] = test system: vector control PC3 parental cell line; assay: as above; type: cell-based; conditions: out to 10 μg/ml of ADC
normal human melanocytes = assay: Toxicity of anti-PMEL17 ADC in normal melanocytes (CellTiter-GloII, five days); type: cell-based; conditions: versus SK-MEL-5 and SK-MEL-23, five days
Method: Finally, SK-MEL-5 and SK-MEL-23 melanoma cells, or normal human melanocytes, were incubated with serial dilutions of the 17A9 ADC and five days later cell numbers were determined using CellTiter-GloII.

[7] = linker-drug without antibody, read-out: EC50

Molecule | EC50 [1, 7] [nM] | EC50 [2, 7] [nM] | EC50 [3, 7] [nM] | further results
MC-PNU-159682 | 0.18 | 0.15 | 0.133 | –
MC-vc-PAB-MMAE | 0.28 | 3.5 | 0.77 | –
MC-vc-PAB-PNU-159682 | 2 | 6.6 | 4.2 | –
B1 | – | – | – | binding to PMEL17 deletion mutants (human PMEL17): binds to the same deletion fragments as 17A9
B2 | – | – | – | effect on tumor growth [4]: retard tumor growth for several weeks; cell killing [5]: effectively killed; cell killing [6]: no killing; IC50 on normal melanocytes relative to melanoma cell lines (normal human melanocytes): ~100 fold
B3 | – | – | – | EC50 ([1]; immunoconjugates): 0.033 µg/mL; EC50 ([2]; immunoconjugates): 0.764 µg/mL; EC50 ([3]; immunoconjugates): 0.119 µg/mL
